How the values were obtained:
HeLa cells [1] = experiment: HeLa cell viability by trypan blue dye exclusion; type: cell-based
Method: Since extracellular calcium concentration can influence triptolide binding Applicant sought to determine if the presence of calcium influences the rate of triptolide-mediated apoptosis. To first establish the growth rate of HeLa in media±calcium, cell counts were performed over a 72 hour time course. Although calcium-free media caused cells to detach more easily, the overall growth rates were similar where cell doubling occurred every 24 hours on average (FIG. 5B). For triptolide experiments, cells were initially equilibrated in medium±calcium for 16 hours before the addition of 100 nM triptolide. Cell death was assessed by trypan blue dye exclusion at 24, 48, and 72 hours post drug treatment. In the presence of calcium-containing medium, triptolide induced at least 50% cell death by 24 hours with this trend continuing through later time points (FIG. 5C).
Applicant's results have implicated reversible binding of triptolide to a potential binding protein or complex that can be regulated by calcium. To understand if triptolide function is further separable between cell death and NFκB inhibition, Applicant examined the effect of concentration on these two endpoints. HeLa cells were cultured in the presence of 0, 10, 25, 50, or 100 nM of triptolide and separately assessed for cell death or the ability to suppress NFκB transactivation promoted by TNF-α. Following 24-48 hours of culture, viable cells were recovered and counted. Following 24 hours, triptolide concentrations from 25-100 nM caused greater than 50% of the cells to undergo cell death as assessed by detachment, clumping and the failure to exclude trypan blue dye. […] This is consistent with previous studies showing that low doses of triptolide cause cell cycle arrest rather than apoptosis (Kiviharju, et al., 2002, Clin Cancer Res 8, 2666-2674).
Based upon Applicant's studies examining the concentration dependent effect of triptolide on the two measured biological endpoints, cell death and transcriptional repression, Applicant wanted to determine how modulating triptolide's structure may also discriminate between the two pathways. For cell viability assays, HeLa cells were incubated with 0, 0.1, 1, or 10 μM of each analog or triptolide for 24 hours and then counted using trypan blue dye exclusion. […] NFκB transcriptional inhibition was measured using the κB-luciferase assay as previously described following 5 hours of incubation with each analog (0-10 μM) and TNF-α addition.
HeLa cells were incubated in DMEM or SMEM (Gibco) media+10% FBS and maintained at 37° C. in 5% CO2 for all experiments. HeLa cell viability was assessed by trypan blue dye exclusion, as well as by morphological examination (non-viable cells were rounded and detached from culture plate).

NFκB transactivation = experiment: κB-luciferase reporter assay of TNF-α induced NFκB transactivation in HeLa cells; type: cell-based
Method: Having established that triptolide induced cell death is dependent upon free calcium concentration, Applicant next determined whether this was also a requirement for the inhibition of NFκB transcription. HeLa cells were transiently transfected with the κB-luciferase reporter construct for 8 hours before being washed and then cultured in the presence or absence of calcium containing medium for 16 hours. Triptolide (100 nM) was pre-incubated with cells for 1 hour before addition of 15 ng/ml of TNF-α for 4 hours.
As an additional experiment, transcriptional activity was also assessed by site-directed calcium buffering. HeLa cells were co-transfected with the κB-luciferase plasmid as well as one of the following constructs: GFP empty vector, NES-PV-GFP, or NLS-PV-GFP and proper GFP localization was confirmed. […]
NFκB transactivation was examined using the κB-luciferase reporter construct. […] Cells were assessed for NFκB driven luciferase expression after an additional five hours of incubation, at which time TNF-α had induced transcriptional activity by approximately 15-fold in control cells. […] The results thus far support a divergence of triptolide-mediated functions: the pathway regulating growth arrest/death is more sensitive to triptolide and calcium than the mechanism leading to transcriptional repression of NFκB.
A triple κB promoter-Luciferase reporter construct was a gift of Sankar Ghosh (Yale University). […] The transfection efficiency of HeLa was determined to be 80-90%, and all samples were normalized to protein concentration. Luciferase assays were performed using the Firefly luciferase kit as per manufacturer's protocol (Promega) and results obtained on the Wallac Victor2 1420 Multilabel Counter (Perkin Elmer).

HeLa cells [2] = experiment: [3H]-triptolide competition binding in intact HeLa cells; conditions: for displacement of / competition for [3H]-triptolide binding: 1 or 10 μM unlabeled competitor for 1 h before approx. 30 nM [3H]-triptolide for 1 h
Method: To gain insight into triptolide's mechanism of action Applicant sought to determine its specific binding activity utilizing a system employing [^3H]-triptolide. In addition to competition with 1 μM or 10 μM unlabeled triptolide, Applicant also measured the binding affinities of triptolide analogs (FIG. 3A). These analogs have been previously described and differ structurally from triptolide in the hydrolysis of the 12,13 epoxide (2), and formation of the ketone at the C-14 hydroxyl (3) (FIG. 3A). […] The effective interaction of these analogs with a presumed triptolide binding entity led us to their use in subsequent experiments addressing the mode of triptolide's biological functions.
Labeling studies were performed by the addition of approximately 30 nM [^3H]-triptolide directly into the culture media for one hour at 37° C. For cold competition studies, 1 μM triptolide was incubated with the cells for one hour before or after the addition of [^3H]-triptolide. Triptolide analog studies followed a similar protocol where concentrations used for competition were either 1 or 10 μM added before [^3H]-triptolide. Medium was removed and cells were washed 3× in cold PBS. Total cell lysates were prepared (150 mM NaCl, 50 mM Tris-HCl pH 7.4, 1 mM EDTA, 1% Triton X-100, and Complete™ protease inhibitors (Roche)) and protein was quantitated before measuring the [^3H]-triptolide binding activity via liquid scintillation.

Compound | cell viability versus untreated control (HeLa cells [1]; 0.1 μM, 24 hours) | effect on continued cell growth (HeLa cells [1]; 0.1 μM, out to 72 hours) | cell death (HeLa cells [1]; 1 μM, 24 hours) | effect on NFκB transcriptional activity (NFκB transactivation; 1 μM, 5 hours with TNF-α) | displacement of / competition for [3H]-triptolide binding (HeLa cells [2]) | effect on cells at low concentration (HeLa cells [1]; 25 nM) | profile of cell death compared with triptolide (HeLa cells [1]; 0.1-10 μM, 24 hours) | profile of transcriptional repression (NFκB) compared with triptolide (NFκB transactivation; 0.1-10 μM, 5 hours) | competitive ability for [3H]-triptolide binding compared with triptolide (HeLa cells [2]; 1 μM competitor)
CC(C)C1(O)C(O)C2OC23C2(C)CCC4=C(COC4=O)C2CC2OC23C1O (stereo not shown) [analog (2), Triol-Triptolide] | not different from the untreated control | overall growth suppressive effect | greater than 50% | no effect | efficiently competes |  |  |  | 
CC(C)[C@]12O[C@H]1[C@@H]1O[C@@]13[C@@]1(C)CCC4=C(COC4=O)[C@@H]1C[C@@H]1O[C@@]13C2=O [analog (3), Triptonide] |  |  |  |  | near complete | only a growth suppressive effect | mimicked triptolide with no significant difference | mimicked triptolide with no significant difference | higher competitive ability than triptolide itself

From patent US20080063601A1, “Compositions and methods relating to polycystic kidney disease” (priority 2004, published 2008)
